Counter-ions that a name gives are not always drawn.
System: Bmi-1 protein
Assay: Sandwich ELISA Assay (Bmi-1 protein level in HT-1080 cells after compound treatment)
Assay type: cell-based
Conditions: Table 1, Bmi-1 sandwich ELISA, read-out: ELISA EC50 value for Bmi-1 protein
In short: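 HT-1080 cells exposed to compounds for 40–48 h at 37 °C (0.5% DMSO final), then lysed. Bmi-1 in lysates measured by sandwich ELISA (mouse monoclonal capture, rabbit anti-Bmi-1 detection, HRP anti-rabbit, TMB), read at OD450 with OD570 reference against a recombinant Bmi-1 standard curve (0–8000 pg/mL).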

| Compound | EC50 |
| --- | --- |
| Cc1nc2ccccc2n1-c1cncc(NC2Cc3ccccc3C2)n1 [compound 424, N-(2,3-dihydro-1H-inden-2-yl)-6-(2-methyl-1H-benzimidazol-1-yl)pyrazin-2-amine] | 100 to 3000 nM |
| CNc1nc2ccccc2n1-c1cncc(Nc2ccc(C(F)(F)F)cc2)n1 [compound 61, N-methyl-1-(6-{[4-(trifluoromethyl)phenyl]amino}pyrazin-2-yl)-1H-benzimidazol-2-amine] | 1 to 10 nM |
| Cc1nc2cnccc2n1-c1cncc(Nc2ccc(C(F)(F)F)cc2)n1 [compound 166, 6-(2-methyl-1H-imidazo[4,5-c]pyridin-1-yl)-N-[4-(trifluoromethyl)phenyl]pyrazin-2-amine] | 100 to 3000 nM |
| COc1ccc(Nc2cccc(-c3c(C(F)(F)F)nc4ccccn34)n2)cc1Cl [Cpd 3, N-(3-chloro-4-methoxyphenyl)-6-[2-(trifluoromethyl)imidazo[1,2-a]pyridin-3-yl]pyridin-2-amine] | 1 to 10 nM |
| N#Cc1cc(Nc2ccc(OC(F)F)cc2)nc(-c2c(C3CC3)nc3ccc(F)cn23)c1 [compound 348, 2-(2-cyclopropyl-6-fluoroimidazo[1,2-a]pyridin-3-yl)-6-{[4-(difluoromethoxy)phenyl]amino}pyridine-4-carbonitrile] | 1 to 10 nM |
| COCCn1nc(C)c(-c2cncc(Nc3ccc(C(F)(F)F)cc3)n2)c1C [compound 399, 6-[1-(2-methoxyethyl)-3,5-dimethyl-1H-pyrazol-4-yl]-N-[4-(trifluoromethyl)phenyl]pyrazin-2-amine] | 1 to 10 nM |
| Cc1nc2c(n1-c1cncc(Nc3ccc(OC(F)F)cc3)n1)CCCC2 [compound 258, N-[4-(difluoromethoxy)phenyl]-6-(2-methyl-4,5,6,7-tetrahydro-1H-benzimidazol-1-yl)pyrazin-2-amine] | 1 to 10 nM |
| FC(F)(F)Oc1ccc(Nc2cccc(-c3c(C(F)(F)F)nc4ccccn34)n2)cc1 [Cpd 16, N-[4-(trifluoromethoxy)phenyl]-6-[2-(trifluoromethyl)imidazo[1,2-a]pyridin-3-yl]pyridin-2-amine] | 10 to 100 nM |
| FC(F)(F)c1ccc(Nc2cncc(-c3c(C(F)(F)F)nc4ccccn34)n2)nc1 [Cpd 190, 6-[2-(trifluoromethyl)imidazo[1,2-a]pyridin-3-yl]-N-[5-(trifluoromethyl)pyridin-2-yl]pyrazin-2-amine] | 10 to 100 nM |
| Fc1ccc(Nc2cncc(-c3c(C(F)(F)F)nc4ccccn34)n2)cc1 [Cpd 9, N-(4-fluorophenyl)-6-[2-(trifluoromethyl)imidazo[1,2-a]pyridin-3-yl]pyrazin-2-amine] | 100 to 3000 nM |
| FC(F)(F)Oc1ccc(Nc2cccc(-c3c(C(F)(F)F)nc4ncccn34)n2)cc1 [compound 99, N-[4-(trifluoromethoxy)phenyl]-6-[2-(trifluoromethyl)imidazo[1,2-a]pyrimidin-3-yl]pyridin-2-amine] | 100 to 3000 nM |
| Cc1nc2cc(F)c(F)cc2n1-c1cncc(Nc2ccc(NCCO)nc2)n1 [compound 425, 2-[(5-{[6-(5,6-difluoro-2-methyl-1H-benzimidazol-1-yl)pyrazin-2-yl]amino}pyridin-2-yl)amino]ethanol] | 10 to 100 nM |
| Cc1nc2ccccc2n1-c1cccc(Nc2ccc(Cl)cc2)n1 [Cpd 606, N-(4-chlorophenyl)-6-(2-methyl-1H-benzimidazol-1-yl)pyridin-2-amine] | 100 to 3000 nM |
| Cc1ccc(Nc2cncc(-c3c(C(F)(F)F)nc4cnccn34)n2)cc1 [compound 168, N-(4-methylphenyl)-6-[2-(trifluoromethyl)imidazo[1,2-a]pyrazin-3-yl]pyrazin-2-amine] | 10 to 100 nM |
| CSc1nc2ccccc2n1-c1cncc(Nc2ccc(OC(F)(F)F)cc2)n1 [compound 167, 6-[2-(methylsulfanyl)-1H-benzimidazol-1-yl]-N-[4-(trifluoromethoxy)phenyl]pyrazin-2-amine] | 100 to 3000 nM |
| COc1cccc(Nc2cncc(-c3c(C)nn4ccccc34)n2)c1 [compound 569, N-(3-methoxyphenyl)-6-(2-methylpyrazolo[1,5-a]pyridin-3-yl)pyrazin-2-amine] | 10 to 100 nM |
| N#Cc1ccc(Nc2cccc(-c3c(C(F)(F)F)nc4ccccn34)n2)cc1 [Cpd 50, 4-({6-[2-(trifluoromethyl)imidazo[1,2-a]pyridin-3-yl]pyridin-2-yl}amino)benzonitrile] | 10 to 100 nM |
| FC(F)Oc1ccc(Nc2cccc(-c3c(C(F)(F)F)nc4ccccn34)n2)cc1 [Cpd 27, N-[4-(difluoromethoxy)phenyl]-6-[2-(trifluoromethyl)imidazo[1,2-a]pyridin-3-yl]pyridin-2-amine] | 1 to 10 nM |
| Fc1cnc2nc(C3CC3)n(-c3cncc(Nc4ccc(OC(F)F)cc4)n3)c2c1 [compound 455, 6-(2-cyclopropyl-6-fluoro-1H-imidazo[4,5-b]pyridin-1-yl)-N-[4-(difluoromethoxy)phenyl]pyrazin-2-amine] | 10 to 100 nM |
| Fc1ccc(Nc2cncc(-c3c(C(F)(F)F)nc4ccc(F)cn34)n2)cc1 [compound 669, N-(4-fluorophenyl)-6-[6-fluoro-2-(trifluoromethyl)imidazo[1,2-a]pyridin-3-yl]pyrazin-2-amine] | 100 to 3000 nM |

| Compound | EC50 |
| --- | --- |
| Nc1cc(Nc2ccc(OC(F)F)cc2)nc(-c2c(C(F)(F)F)nc3ccccn23)c1 [compound 170, N^2-[4-(difluoromethoxy)phenyl]-6-[2-(trifluoromethyl)imidazo[1,2-a]pyridin-3-yl]pyridine-2,4-diamine] | 100 to 3000 nM |
| FC(F)(F)c1nc2sccn2c1-c1cncc(Nc2ccccc2)n1 [compound 122, N-phenyl-6-[6-(trifluoromethyl)imidazo[2,1-b][1,3]thiazol-5-yl]pyrazin-2-amine] | 100 to 3000 nM |
| Cc1nc2ccccc2n1-c1cncc(Nc2ccc(C(F)(F)F)nc2)n1 [compound 73, 6-(2-methyl-1H-benzimidazol-1-yl)-N-[6-(trifluoromethyl)pyridin-3-yl]pyrazin-2-amine] | 10 to 100 nM |
| Cc1nc2ccccc2n1-c1cncc(Nc2ccc(CN)cc2)n1 [154a, N-[4-(aminomethyl)phenyl]-6-(2-methyl-1H-benzimidazol-1-yl)pyrazin-2-amine trifluoroacetate] | 10 to 100 nM |
| Cc1cc2nc(C)n(-c3cc(C#N)cc(Nc4ccc(C(F)(F)F)cc4)n3)c2cc1C [Cpd 389, 2-{[4-(trifluoromethyl)phenyl]amino}-6-(2,5,6-trimethyl-1H-benzimidazol-1-yl)pyridine-4-carbonitrile] | 100 to 3000 nM |
| COCc1nc2ccccc2n1-c1cncc(Nc2ccc(C(F)(F)F)cc2)n1 [compound 65, 6-[2-(methoxymethyl)-1H-benzimidazol-1-yl]-N-[4-(trifluoromethyl)phenyl]pyrazin-2-amine] | 100 to 3000 nM |
| Cc1nc2ccc(Cl)cc2n1-c1cc(C#N)cc(Nc2ccc(C(F)(F)F)cc2)n1 [compound 345, 2-(6-chloro-2-methyl-1H-benzimidazol-1-yl)-6-{[4-(trifluoromethyl)phenyl]amino}pyridine-4-carbonitrile] | 10 to 100 nM |
| Cc1nc2ncc(Cl)cc2n1-c1cc(C#N)cc(Nc2ccc(OC(F)F)cc2)n1 [compound 428, 2-(6-chloro-2-methyl-1H-imidazo[4,5-b]pyridin-1-yl)-6-{[4-(difluoromethoxy)phenyl]amino}pyridine-4-carbonitrile] | 1 to 10 nM |
| Cc1nc2ccccc2n1-c1cncc(Nc2ccc(C(C)C)cc2)n1 [compound 661, 6-(2-methyl-1H-benzimidazol-1-yl)-N-[4-(propan-2-yl)phenyl]pyrazin-2-amine] | 10 to 100 nM |
| Cc1nc2c(F)cc(F)cc2n1-c1cc(C#N)cc(Nc2ccc(OC(F)(F)F)cc2)n1 [Cpd 449, 2-(4,6-difluoro-2-methyl-1H-benzimidazol-1-yl)-6-{[4-(trifluoromethoxy)phenyl]amino}pyridine-4-carbonitrile] | 100 to 3000 nM |
| FC(F)(F)c1ccc(Nc2cncc(-c3ccnc4ccccc34)n2)cc1 [compound 384, 6-(quinolin-4-yl)-N-[4-(trifluoromethyl)phenyl]pyrazin-2-amine] | 100 to 3000 nM |
| FC(F)Oc1ccc(Nc2cncc(-c3c(C(F)(F)F)nn4ccccc34)n2)cc1 [compound 72, N-[4-(difluoromethoxy)phenyl]-6-[2-(trifluoromethyl)pyrazolo[1,5-a]pyridin-3-yl]pyrazin-2-amine] | 1 to 10 nM |
| FC(F)(F)Oc1ccc(Nc2cccc(-n3c(C(F)(F)F)nc4ccccc43)n2)cc1 [Cpd 39, N-[4-(trifluoromethoxy)phenyl]-6-[2-(trifluoromethyl)-1H-benzimidazol-1-yl]pyridin-2-amine] | 100 to 3000 nM |
| Fc1ccc(Nc2cncc(-c3c(C(F)(F)F)nc4ccccn34)n2)cc1F [Cpd 26, N-(3,4-difluorophenyl)-6-[2-(trifluoromethyl)imidazo[1,2-a]pyridin-3-yl]pyrazin-2-amine] | 100 to 3000 nM |
| Cc1nc(Br)cn1-c1cncc(Nc2ccc(C(F)(F)F)cc2)n1 [compound 298, 6-(4-bromo-2-methyl-1H-imidazol-1-yl)-N-[4-(trifluoromethyl)phenyl]pyrazin-2-amine] | 100 to 3000 nM |
| Fc1ccc2nc(C(F)(F)F)c(-c3cccc(Nc4ccc(C(F)(F)F)cc4)n3)n2c1 [compound 411, 6-[6-fluoro-2-(trifluoromethyl)imidazo[1,2-a]pyridin-3-yl]-N-[4-(trifluoromethyl)phenyl]pyridin-2-amine] | 10 to 100 nM |
| FC(F)(F)c1ccc(Nc2cccc(-n3c(C(F)(F)F)nc4ccccc43)n2)cc1 [Cpd 40, 6-[2-(trifluoromethyl)-1H-benzimidazol-1-yl]-N-[4-(trifluoromethyl)phenyl]pyridin-2-amine] | 100 to 3000 nM |
| COC(=O)c1ccc(Nc2cncc(-c3c(C)nn4ccccc34)n2)cc1 [compound 572, methyl 4-{[6-(2-methylpyrazolo[1,5-a]pyridin-3-yl)pyrazin-2-yl]amino}benzoate] | 1 to 10 nM |
| Cc1nc2ccccc2n1-c1cc(F)cc(Nc2ccc(C(F)(F)F)cc2)n1 [Cpd 494, 4-fluoro-6-(2-methyl-1H-benzimidazol-1-yl)-N-[4-(trifluoromethyl)phenyl]pyridin-2-amine] | 10 to 100 nM |

Reference: patent publication US10584115B2, “Substituted pyridine and pyrazine BMI-1 inhibitors” (PTC Therapeutics, Inc., priority 2013, dated 2020)
